In patent publication US11623919B2, “Heterocyclic P2X7 antagonists” (AXXAM S.P.A., priority 2017, dated 2023):

Legend:
Assay in all cases: Screen Quest Fluo-8 No Wash Calcium Assay (Bz-ATP evoked Ca2+ influx, FLIPR)
Assay type in all cases: cell-based
[1] = target: T1, P2X7 receptor (Rattus norvegicus, UniProt Q64663); conditions: rP2X7; HEK-293 cells stably transfected with P2X7 receptor, Bz-ATP at EC80, Fluo-8 NW; potency ranges A-D
T1 construct: rP2X7 (IC50; nM); other: rP2X7; HEK-293 cells stably transfected with P2X7 receptor, Bz-ATP at EC80, Fluo-8 NW; potency
T1 sequence (Q64663 1-595): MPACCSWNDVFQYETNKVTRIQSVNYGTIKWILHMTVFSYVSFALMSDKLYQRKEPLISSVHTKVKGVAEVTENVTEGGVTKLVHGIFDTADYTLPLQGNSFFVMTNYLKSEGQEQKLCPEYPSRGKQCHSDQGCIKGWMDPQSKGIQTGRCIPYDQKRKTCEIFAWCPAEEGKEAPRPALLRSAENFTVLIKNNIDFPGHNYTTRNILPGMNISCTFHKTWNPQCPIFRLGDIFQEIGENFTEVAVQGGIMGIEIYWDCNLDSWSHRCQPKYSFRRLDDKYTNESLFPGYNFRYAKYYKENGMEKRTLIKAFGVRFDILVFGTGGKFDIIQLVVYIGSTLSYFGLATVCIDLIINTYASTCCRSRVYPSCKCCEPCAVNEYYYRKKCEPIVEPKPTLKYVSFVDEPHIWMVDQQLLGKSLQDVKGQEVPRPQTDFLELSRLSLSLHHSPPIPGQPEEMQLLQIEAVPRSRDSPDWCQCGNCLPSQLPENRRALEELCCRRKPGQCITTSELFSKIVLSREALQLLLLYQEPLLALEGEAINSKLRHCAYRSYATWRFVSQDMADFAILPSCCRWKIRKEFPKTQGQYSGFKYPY
Summary of the method: (§1)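 Compounds were added to Fluo-8-loaded P2X7-transfected HEK-293 cells 5 min before an EC80 Bz-ATP challenge, and Ca2+ influx was then recorded for 3 min. Buffer held 0.3 mM Ca2+ and no Mg2+. Inhibition was normalised to A438079, giving IC50 values.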

[2] = target: T2, P2X7 receptor (Mus musculus, UniProt Q9Z1M0); conditions: mP2X7; HEK-293 cells stably transfected with P2X7 receptor, Bz-ATP at EC80, Fluo-8 NW; potency ranges A-D
T2 construct: mP2X7 (IC50; nM); other: mP2X7; HEK-293 cells stably transfected with P2X7 receptor, Bz-ATP at EC80, Fluo-8 NW; potency
T2 sequence (Q9Z1M0 1-595): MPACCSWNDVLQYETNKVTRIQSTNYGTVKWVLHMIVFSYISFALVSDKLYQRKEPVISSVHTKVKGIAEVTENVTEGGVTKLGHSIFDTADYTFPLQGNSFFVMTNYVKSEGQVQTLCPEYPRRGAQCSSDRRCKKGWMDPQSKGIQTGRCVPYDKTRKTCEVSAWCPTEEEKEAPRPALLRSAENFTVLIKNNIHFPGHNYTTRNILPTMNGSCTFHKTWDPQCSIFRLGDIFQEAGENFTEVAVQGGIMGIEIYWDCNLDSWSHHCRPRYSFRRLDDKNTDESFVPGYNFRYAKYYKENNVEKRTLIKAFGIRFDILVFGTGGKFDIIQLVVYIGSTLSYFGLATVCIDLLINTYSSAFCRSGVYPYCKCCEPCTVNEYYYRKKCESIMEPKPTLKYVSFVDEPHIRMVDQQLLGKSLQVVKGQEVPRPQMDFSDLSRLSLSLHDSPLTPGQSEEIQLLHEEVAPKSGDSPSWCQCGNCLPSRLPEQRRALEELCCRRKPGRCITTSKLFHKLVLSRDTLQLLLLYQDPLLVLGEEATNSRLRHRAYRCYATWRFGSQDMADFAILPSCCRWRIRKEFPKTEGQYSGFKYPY
Summary of the method: as §1

[3] = target: T3, P2X7 receptor (Homo sapiens, UniProt Q99572); parameters: hP2X7 (IC50; nM); other: hP2X7; HEK-293 cells stably transfected with P2X7 receptor, Bz-ATP at EC80, Fluo-8 NW; potency; conditions: hP2X7; HEK-293 cells stably transfected with P2X7 receptor, Bz-ATP at EC80, Fluo-8 NW; potency ranges A-D
T3 sequence (Q99572 1-595): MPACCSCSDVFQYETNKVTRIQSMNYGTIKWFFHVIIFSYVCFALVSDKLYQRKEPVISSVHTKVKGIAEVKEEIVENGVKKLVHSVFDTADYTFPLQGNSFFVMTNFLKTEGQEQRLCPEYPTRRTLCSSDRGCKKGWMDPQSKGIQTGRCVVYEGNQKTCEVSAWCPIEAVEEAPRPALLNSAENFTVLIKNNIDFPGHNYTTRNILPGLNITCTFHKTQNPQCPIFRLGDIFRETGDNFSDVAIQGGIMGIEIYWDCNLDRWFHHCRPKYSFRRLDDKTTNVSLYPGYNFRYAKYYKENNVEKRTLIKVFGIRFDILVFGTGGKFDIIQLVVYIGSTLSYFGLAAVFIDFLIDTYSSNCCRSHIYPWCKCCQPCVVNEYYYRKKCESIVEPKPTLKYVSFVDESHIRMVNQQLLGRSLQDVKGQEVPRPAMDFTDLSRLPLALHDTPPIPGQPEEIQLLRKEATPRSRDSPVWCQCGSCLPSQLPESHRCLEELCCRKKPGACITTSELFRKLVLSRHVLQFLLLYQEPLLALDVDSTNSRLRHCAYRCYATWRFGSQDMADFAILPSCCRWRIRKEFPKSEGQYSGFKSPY
Summary of the method: as §1

Compound	IC50 [1] [nM]	IC50 [2] [nM]	IC50 [3] [nM]
O=c1onc(Cc2cccc(C(F)(F)F)c2Cl)n1CC1CCCCC1 [Example 113, 3-{[2-chloro-3-(trifluoromethyl)phenyl]methyl}-4-(cyclohexylmethyl)-4,5-dihydro-1,2,4-oxadiazol-5-one]	1000 to 10000	1000 to 10000	1000 to 10000
COc1ccc(Cn2c(Cc3c(F)cccc3Cl)noc2=O)cc1 [Example 68, 3-[(2-chloro-6-fluorophenyl)methyl]-4-[(4-methoxyphenyl)methyl]-4,5-dihydro-1,2,4-oxadiazol-5-one]	> 10000	> 10000	1000 to 10000
CC#CCn1c(Cc2c(F)cccc2Cl)noc1=O [Example 95, 4-(but-2-yn-1-yl)-3-[(2-chloro-6-fluorophenyl)methyl]-4,5-dihydro-1,2,4-oxadiazol-5-one]	> 10000	> 10000	> 10000
O=c1onc(Cc2ccc(Cl)cc2Cl)n1Cc1c(F)cccc1Cl [Example 17, 4-[(2-chloro-6-fluorophenyl)methyl]-3-[(2,4-dichlorophenyl)methyl]-4,5-dihydro-1,2,4-oxadiazol-5-one]	1000 to 10000	1000 to 10000	1000 to 10000
O=c1onc(Cc2c(F)cccc2Cl)n1Cc1ccncc1 [Example 43, 3-[(2-chloro-6-fluorophenyl)methyl]-4-(pyridin-4-ylmethyl)-4,5-dihydro-1,2,4-oxadiazol-5-one]	> 10000	> 10000	> 10000
COc1ccc(Cn2c(Cc3ccc(F)cc3)noc2=O)cc1 [Example 3, 3-[(4-fluorophenyl)methyl]-4-[(4-methoxyphenyl)methyl]-4,5-dihydro-1,2,4-oxadiazol-5-one]	> 10000	> 10000	> 10000
O=c1onc(Cc2c(F)cccc2Cl)n1Cc1ccoc1 [Example 44, 3-[(2-chloro-6-fluorophenyl)methyl]-4-(furan-3-ylmethyl)-4,5-dihydro-1,2,4-oxadiazol-5-one]	1000 to 10000	> 10000	1000 to 10000
Cc1nc(C(F)(F)F)ccc1Cn1c(Cc2c(F)cccc2Cl)noc1=O [Example 64, 3-[(2-chloro-6-fluorophenyl)methyl]-4-{[2-methyl-6-(trifluoromethyl)pyridin-3-yl]methyl}-4,5-dihydro-1,2,4-oxadiazol-5-one]	> 10000	> 10000	1000 to 10000
Cc1ccc(Cn2c(Cc3c(F)cccc3Cl)noc2=O)cc1 [Example 67, 3-[(2-chloro-6-fluorophenyl)methyl]-4-[(4-methylphenyl)methyl]-4,5-dihydro-1,2,4-oxadiazol-5-one]	1000 to 10000	1000 to 10000	1000 to 10000
Cc1cc(Cn2c(Cc3c(F)cccc3Cl)noc2=O)n(C)n1 [Example 46, 3-[(2-chloro-6-fluorophenyl)methyl]-4-[(1,3-dimethyl-1H-pyrazol-5-yl)methyl]-4,5-dihydro-1,2,4-oxadiazol-5-one]	> 10000	> 10000	> 10000
O=c1onc(Cc2c(F)cccc2Cl)n1Cc1ccc(C(F)(F)F)cc1 [Example 63, 3-[(2-chloro-6-fluorophenyl)methyl]-4-{[4-(trifluoromethyl)phenyl]methyl}-4,5-dihydro-1,2,4-oxadiazol-5-one]	1000 to 10000	1000 to 10000	1000 to 10000
O=c1onc(Cc2ccc(F)cc2)n1Cc1ccc(F)cc1Cl [Example 51, 4-[(2-chloro-4-fluorophenyl)methyl]-3-[(4-fluorophenyl)methyl]-4,5-dihydro-1,2,4-oxadiazol-5-one]	1000 to 10000	1000 to 10000	1000 to 10000
O=c1onc(Cc2ccccc2Cl)n1Cc1c(F)cccc1Cl [Example 20, 4-[(2-chloro-6-fluorophenyl)methyl]-3-[(2-chlorophenyl)methyl]-4,5-dihydro-1,2,4-oxadiazol-5-one]	1000 to 10000	1000 to 10000	1000 to 10000

Other lines, results leading:

IC50 [1] [nM]	IC50 [2] [nM]	IC50 [3] [nM]	Compound
1000 to 10000	1000 to 10000	> 10000	O=c1onc(CC2CCCCC2)n1CC1CCCCC1 [Example 129, bis(cyclohexylmethyl)-4,5-dihydro-1,2,4-oxadiazol-5-one]
1000 to 10000	1000 to 10000	1000 to 10000	O=c1onc(CC2CCCCC2)n1Cc1ccc(F)cc1 [Example 131, 3-(cyclohexylmethyl)-4-[(4-fluorophenyl)methyl]-4,5-dihydro-1,2,4-oxadiazol-5-one]
> 10000	> 10000	1000 to 10000	Cc1noc(C)c1Cc1noc(=O)n1Cc1c(F)cccc1Cl [Example 209, 4-[(2-chloro-6-fluorophenyl)methyl]-3-[(dimethyl-1,2-oxazol-4-yl)methyl]-4,5-dihydro-1,2,4-oxadiazol-5-one]
200 to 1000	200 to 1000	200 to 1000	O=c1onc(CN2CCCC(F)(F)C2)n1Cc1c(F)cccc1Cl [Example 224, 4-[(2-chloro-6-fluorophenyl)methyl]-3-[(3,3-difluoropiperidin-1-yl)methyl]-4,5-dihydro-1,2,4-oxadiazol-5-one]
< 200	200 to 1000	< 200	O=c1onc(Cc2cccc(Cl)c2Cl)n1CC1CCC(F)(F)CC1 [Example 156, 3-[(2,3-dichlorophenyl)methyl]-4-[(4,4-difluorocyclohexyl)methyl]-4,5-dihydro-1,2,4-oxadiazol-5-one]
> 10000	> 10000	> 10000	COc1cccc(Cc2noc(=O)n2CC2CCCCC2)c1 [Example 127, 4-(cyclohexylmethyl)-3-[(3-methoxyphenyl)methyl]-4,5-dihydro-1,2,4-oxadiazol-5-one]
200 to 1000	200 to 1000	200 to 1000	Cc1ncsc1Cn1c(CC2CCC(F)(F)CC2)noc1=O [Example 200, 3-[(4,4-difluorocyclohexyl)methyl]-4-[(4-methyl-1,3-thiazol-5-yl)methyl]-1,2,4-oxadiazol-5(4H)-one]
< 200	200 to 1000	< 200	O=c1onc(Cc2ccccc2C(F)(F)F)n1CC1CCC(F)(F)CC1 [Example 157, 4-[(4,4-difluorocyclohexyl)methyl]-3-{[2-(trifluoromethyl)phenyl]methyl}-4,5-dihydro-1,2,4-oxadiazol-5-one]
